# Test results taken from patent US10064865B2, “Composition comprising phosphodiesterase type 5 inhibitor for inhibiting apoptosis of nerve cells” (ARIBIO INC., priority 2012, dated 2018).
# Marks after values point to notes of the source that are not given here.
# System: neuron apoptosis-operated rats
# Test: Example 1 hindlimb placing test
# Format: in vivo, Sprague-Dawley (SD) rats
# Procedure: Sensorimotor function was evaluated by use of limb placing de Ryck M et al., Stroke. 20:1383-90(1989)) and body swing (Borlongan and Sanberg, J Neurosci. 15:5372-8(1995)) tests. These tests were performed one day before neuron apoptosis to obtain a baseline and then at 1, 3, 7, 14, 21 and 28 days after neuron apoptosis. Behavioral tests were done before drug administration on days when both were scheduled. The investigator performing the surgery and behavioral assessments was blinded to treatment assignment.
# Limb placing test: Forelimb and hindlimb placement were assessed independently. For the forelimb placing test, the rats were held by their torso with their forepaws hanging free and moved slowly toward the edge of a tabletop, stopping short of touching the vibrissae (for vision-induced placing), touching the vibrissae (for vibrissae-induced placing), making light contact with the front of the forepaw to the edge of the tabletop (for tactile-induced placing), and pressing the forepaws to the edge of the table with increased pressure (for proprioceptive-induced placing). Hindlimb placing was conducted in the same manner as above but with tactile and proprioceptive stimulation applied to the front/top of each hindlimb. Each limb for placing in response to visual, vibrissae, tactile, and proprioceptive stimulation are scored in the following manner (A total of 12 points in forelimb placing test and 6 points in hindlimb placing test means maximal neurological deficit, and 0 points means normal performance):
# Normal performance=0 points;
# Performance with unilateral limb=1 point;
# Performance with a delay (2 seconds) and/or incomplete=2 point;
# All data were expressed as mean±standard deviation (S.D.) of ten rats. Multiple comparison tests for different dose groups were conducted. Variance homogeneity was examined using the Levene test (Levene A, Clin Otalary, 1981; 6:145-51). […] Statistical analyses were conducted using SPSS (Release 14K, SPSS Inc., USA; Ludbrook, Clin Exp Pharmacol Physiol, 1997; 24:294-6). In addition, the percent changes between neuron apoptosis control and mirodenafil treated rats were calculated to help the understanding of the efficacy of test material as follow equation 3. Percentage changes as compared with neuron apoptosis control (%)=[((Data of mirodenafil treated groups−Data of neuron apoptosis control)/Data of neuron apoptosis control)×100] [EQUATION 3]
smiles,measurement,setting,value
"CCCOc1ccc(S(=O)(=O)N2CCN(CCO)CC2)cc1-c1nc2c(CCC)cn(CC)c2c(=O)[nH]1 [Mirodenafil, mirodenafil]",Hindlimb placing test score,"0.5 mg/kg group, day 1 after operation (before drug administration)",6.00 ± 0.00^d
same,Hindlimb placing test score,"0.5 mg/kg group, day −1 (baseline)",0.50 ± 0.71
same,Hindlimb placing test score,"0.5 mg/kg s.c. once a day, day 3 after operation",4.00 ± 0.82^a
same,Hindlimb placing test score,"0.5 mg/kg s.c. once a day, day 7 after operation",3.20 ± 0.79^a
same,Hindlimb placing test score,"0.5 mg/kg s.c. once a day, day 14 after operation",2.80 ± 0.63^d
same,Hindlimb placing test score,"0.5 mg/kg s.c. once a day, day 21 after operation",2.60 ± 0.70^a
same,Hindlimb placing test score,"0.5 mg/kg s.c. once a day, day 28 after operation",2.40 ± 0.97^a
same,"hindlimb placing test scores, change as compared with neuron apoptosis control","0.5 mg/kg, 3 days after surgery",−6.98%
same,"hindlimb placing test scores, change as compared with neuron apoptosis control","0.5 mg/kg, 7 days after surgery",−8.57%
same,"hindlimb placing test scores, change as compared with neuron apoptosis control","0.5 mg/kg, 14 days after surgery",−9.68%
same,"hindlimb placing test scores, change as compared with neuron apoptosis control","0.5 mg/kg, 21 days after surgery",−13.33%
same,"hindlimb placing test scores, change as compared with neuron apoptosis control","0.5 mg/kg, 28 days after surgery",−11.11%
same,Hindlimb placing test score,"1 mg/kg group, day 1 after operation (before drug administration)",6.00 ± 0.00^d
same,Hindlimb placing test score,"1 mg/kg group, day −1 (baseline)",0.30 ± 0.48
same,Hindlimb placing test score,"1 mg/kg s.c. once a day, day 3 after operation",3.50 ± 0.71^ac
same,Hindlimb placing test score,"1 mg/kg s.c. once a day, day 7 after operation",2.50 ± 0.71^ab
same,Hindlimb placing test score,"1 mg/kg s.c. once a day, day 14 after operation",2.10 ± 0.57^df
same,Hindlimb placing test score,"1 mg/kg s.c. once a day, day 21 after operation",1.70 ± 0.48^ab
same,Hindlimb placing test score,"1 mg/kg s.c. once a day, day 28 after operation",1.10 ± 0.74^ab
same,"hindlimb placing test scores, change as compared with neuron apoptosis control","1 mg/kg, 3 days after surgery",−18.80%
same,"hindlimb placing test scores, change as compared with neuron apoptosis control","1 mg/kg, 7 days after surgery",−28.57%
same,"hindlimb placing test scores, change as compared with neuron apoptosis control","1 mg/kg, 14 days after surgery",−32.26%
same,"hindlimb placing test scores, change as compared with neuron apoptosis control","1 mg/kg, 21 days after surgery",−43.33%
same,"hindlimb placing test scores, change as compared with neuron apoptosis control","1 mg/kg, 28 days after surgery",−59.26%
same,Hindlimb placing test score,"2 mg/kg group, day 1 after operation (before drug administration)",6.00 ± 0.00^d
same,Hindlimb placing test score,"2 mg/kg group, day −1 (baseline)",0.40 ± 0.52
same,Hindlimb placing test score,"2 mg/kg s.c. once a day, day 3 after operation",3.30 ± 0.67^ab
same,Hindlimb placing test score,"2 mg/kg s.c. once a day, day 7 after operation",2.30 ± 0.82^ab
same,Hindlimb placing test score,"2 mg/kg s.c. once a day, day 14 after operation",1.80 ± 1.03^de
same,Hindlimb placing test score,"2 mg/kg s.c. once a day, day 21 after operation",1.60 ± 0.84^ab
same,Hindlimb placing test score,"2 mg/kg s.c. once a day, day 28 after operation",1.10 ± 0.57^ab
same,"hindlimb placing test scores, change as compared with neuron apoptosis control","2 mg/kg, 3 days after surgery",−23.26%
same,"hindlimb placing test scores, change as compared with neuron apoptosis control","2 mg/kg, 7 days after surgery",−34.29%
same,"hindlimb placing test scores, change as compared with neuron apoptosis control","2 mg/kg, 14 days after surgery",−41.94%
same,"hindlimb placing test scores, change as compared with neuron apoptosis control","2 mg/kg, 21 days after surgery",−46.67%
same,"hindlimb placing test scores, change as compared with neuron apoptosis control","2 mg/kg, 28 days after surgery",−59.26%
